From article PMC9198545, “Pharmacokinetics and Pharmacodynamics of Fungal Defensin NZX Against Staphylococcus aureus-Induced Mouse Peritonitis Model” (Frontiers in Microbiology, 2022)
Converted amounts (≈) assume the structure as drawn. Read-outs that look alike come from different tables or passages of the source.

Assays:
S. aureus E48 [1] = experiment: microbe, parasite or virus in culture
Procedure: (§1) The MICs of NZX and other antibacterial agents against S. aureus strains were conducted according to the Clinical Laboratory Standards Institute (Watts et al., [2013]). […] The wells containing antibiotics were set as positive controls. Negative control wells contained a PBS buffer and bacterial suspension without antibacterial agents. The MIC value was defined as the lowest concentration of antibacterial agents at which no visible bacteria were observed. All MIC assays were performed independently in triplicate.

[2] = tested on: S. aureus MRSA ATCC 43300; experiment: microbe, parasite or virus in culture
Procedure: as §1

[3] = tested on: S. aureus MSSA ATCC 25923; experiment: microbe, parasite or virus in culture; details: Staphylococcus aureus, ATCC25923|MSSA
Procedure: as §1

S. aureus E48 [4] = experiment: Survival rate and time-killing kinetic curves; format: cell-based, Staphylococcus aureus; details: for Survival rate of S. aureus E48: 1/2 × to 2 × MIC for 2 h, 1 × 10^5 CFU/ml, mean n = 3; for time to complete killing of S. aureus E48: 2 × MIC
Procedure: Survival rate and time-killing kinetic curves experiments were conducted as described previously (Li et al., [2020b]). […] After incubation at various times (0, 15, 30, 60, 90, and 120 min), a volume of 100 μl of bacterial suspension was taken out from a flask and diluted to count. All assays were conducted independently in triplicate.

S. aureus E48 [5] = experiment: microbe, parasite or virus in culture; details: for MIC: Staphylococcus aureus, E48, read-out: MIC after 30-day serial passage
Procedure: The development of drug resistance of S. aureus E48 induced by NZX and antibiotics was conducted as described previously (Li et al., [2017]). The MICs of antibacterial agents were measured according to the MICs testing method as described above. […] Then, the MIC values of the next passage were conducted again, and the experimental procedures were repeated for 30 days. The development of drug resistance was determined by the fold changes in MICs.

S. aureus E48 [6] = experiment: MIC after cathepsin B treatment or in MHB at pH 5.0; format: cell-based, Staphylococcus aureus; details: for MIC at pH 5.0 compared to pH 7.4 (increase): MHB adjusted to pH 5.0, lysosomal acid environment; for change of MIC in phagolysosomal proteinase environment: cathepsin B 16 μg/ml, pH 5.0 buffer, 37°C, 1 h
Procedure: To test the effect of phagolysosomal enzyme-cathepsin B (from bovine spleen, Sigma C7800) on the antibacterial activities of peptides, NZX was diluted to 640 μg/ml in a cathepsin buffer (5-mM L-cysteine, 20-mM sodium acetate, 1-mM EDTA, pH of 5.0) and incubated with 16 μg/ml enzyme solution at 37°C for 1 h. The MIC value of NZX against S. aureus E48 was examined. NZX without enzyme solution was set as the negative control. Additionally, to mimic the intracellular condition, the MHB medium was adjusted to a specific pH value of 5.0 to determine the MIC value of NZX against S. aureus E48 in the acidic environment (Wang et al., [2019]). In all experiments, clindamycin, linezolid, daptomycin, and ampicillin acted as antibiotic control.

S. aureus E48 [7] = format: in vivo, mouse; details: for extension of survival time: 20 mg/kg intravenous single injection; for survival rate of the mice: 7 days, n = 6
Procedure: Each mouse was received a peritonitis by intraperitoneal injection of S. aureus E48 suspended in a PBS buffer (2 × 10^8 CFU/ml, 0.5 ml). […] After therapy, the survival conditions of the mice were recorded within 7 days.

S. aureus E48 [8] = experiment: MIC in physiological salt and serum media; format: cell-based, Staphylococcus aureus; details: MHB adjusted to 1.25 mM CaCl2
Procedure: The physiological salt and serum stability of NZX were performed according to the previous report (Hirsch et al., [2019]).

[9] = tested on: intracellular S. aureus E48 in RAW 264.7; experiment: Intracellular antibacterial activity in RAW 264.7 cells; format: cell-based, Staphylococcus aureus; details: 1, 4, 16, 64 and 128 μg/ml, 24 h
Procedure: The antibacterial effects of NZX against intracellular S. aureus E48 in RAW 264.7 were determined according to a previous study (Wang et al., [2018]). The antibacterial concentrations of NZX against S. aureus E48 were set as 1, 4, 16, 64, and 128 μg/ml. Daptomycin was selected as a control because it is a polypeptide drug similar to NZX. In addition, the internalization and distribution assays of NZX in RAW 264.7 were conducted according to Wang et al. ([2019]). Briefly, RAW 264.7 cells were grown on culture dishes at 37°C for 24 h. FITC or FITC-NZX (1, 16, and 64 μg/ml) was added and incubated in the culture dishes for 24 h. The cells were washed two times with PBS and quenched by 0.04% trypan blue. Samples were analyzed by flow cytometry to determine the uptake of NZX. In distribution analysis, FITC or FITC-NZX at 64 μg/ml was added and incubated in the culture dishes for 24 h. The cells were washed two times with PBS, stained with 5 μg/ml wheat germ agglutinin (WGA)-conjugated Alexa Fluor 555 (ThermoFisher Scientific, USA) and Hoechst 33342 (ThermoFisher Scientific, USA) for 10 min, and observed by confocal microscopy (Leica TCS SP 5, Germany).

S. aureus E48 [10] = experiment: Bacterial burden in organs and peritoneal fluid, mouse peritonitis model; format: in vivo; details: 20 mg/kg, 24 h
Procedure: In this study, untreated mice that received a lethal dose of S. aureus (2 × 10^8 CFU/ml, 0.5 ml) began to die at 6 to 8 h, and all died before 24 h, which made it difficult for us to obtain the samples when the therapy effects after 24 h administration were analyzed. Therefore, the mice that received half lethal doses of S. aureus E48 (1 × 10^8 CFU/ml, 0.5 ml) were conducted in the following pharmacodynamics analysis. After 24 h therapy with NZX (5, 10, and 20 mg/kg) or daptomycin (20 mg/kg), organ tissues, including livers, lungs, spleens, hearts, and kidneys, were collected, homogenated, and plated to count bacterial burden. In addition, the total number of bacteria and intracellular bacteria counts in peritoneal fluids were determined as described by Wang et al. ([2018]). Briefly, the total bacterial CFU in the peritoneal fluid were quantified before any further procedures. In addition, the collected peritoneal fluid was centrifuged and washed to obtain peritoneal macrophage, and then extracellular bacteria were killed after treatment with 50 μg/ml lysostaphin at 37°C for 30 min. The cells were washed two times by PBS and suspended with 1 ml of cold sterile water for lysis, and the lysate was used to determine the intracellular bacterial burden.

S. aureus E48 [11] = details: ref Yang et al., 2019, cited from earlier work
Description: NZX, a variant of plectasin, has garnered interest as an ideal therapeutic drug against S. aureus because of its ability to kill intracellular bacteria and good biocompatibility (Tenland et al., [2018]; Liu et al., [2020]). […] T ...

[12] = ref Liu et al., 2020; cited from earlier work
Description: However, plectasin had some limitations before clinical application, such as cytotoxicity and trypsin instability (Yang et al., [2019]). NZX (MW 4383.89 Da), a variant of plectasin with three mutation sites (D9S, M13I, and K32R), had the increased net charge (from +1 to +2) and hydrophobicity (from −0.695 to ...

[13] = parameters: method as in Andes et al., 2009; Brinch et al., 2009; details: in human and mice serum, ref Andes et al., 2009, Brinch et al.; cited from earlier work
[14] = 1 × 10^5 CFU/ml, 16–18 h at 37°C, 96-well microplate, daptomycin with 1.25 mM calcium chloride, triplicate
[15] = text summary over two strains: S. aureus MSSA ATCC 25923 and S. aureus E48
[16] = 20 mg/kg intravenous single injection 2 h post-infection, 2 × 10^8 CFU/ml, 0.5 ml i.p.
[17] = 20 mg/kg intravenous two times (2 h and 8 h after infection)
[18] = repeated exposure at sub-MIC for 30 days

Molecule | MIC (S. aureus E48 [1]; Staphylococcus aureus) | MIC ([2]; Staphylococcus aureus) | MIC [3, 14] | MIC [3, 15] | Survival rate of S. aureus E48 (S. aureus E48 [4]) | MIC (S. aureus E48 [5]) | MIC at pH 5.0 compared to pH 7.4 (increase) (S. aureus E48 [6]) | change of MIC in phagolysosomal proteinase environment (S. aureus E48 [6]) | extension of survival time (S. aureus E48 [7]) | survival rate of the mice (S. aureus E48 [7]; [16]) | survival rate of the mice (S. aureus E48 [7]; [17]) | time to complete killing of S. aureus E48 (S. aureus E48 [4]) | also measured
CC1(C)S[C@@H]2[C@H](NC(=O)[C@H](N)c3ccccc3)C(=O)N2[C@H]1C(=O)O [Ampicillin] | 0.25 µg/mL (≈ 0.715 µM) | 8 µg/mL (≈ 22.9 µM) | 0.25 µg/mL (≈ 0.715 µM) | 0.25 µg/mL (≈ 0.715 µM) | 83.21–100.31% | 16 µg/mL (≈ 45.8 µM) | did not influence | at least 4 fold | 2 to 4 days | all the mice were dead | 50% |  | 
CCC[C@@H]1C[C@@H](C(=O)N[C@@H]([C@H]2O[C@H](SC)[C@H](O)[C@@H](O)[C@H]2O)[C@H](C)Cl)N(C)C1 [Clindamycin] |  |  |  |  |  |  | ≤ 8 fold | at least 4 fold |  |  |  | ≤ 2 h | 
CCCCCCCCCC(=O)N[C@@H](Cc1c[nH]c2ccccc12)C(=O)N[C@H](CC(N)=O)C(=O)N[C@@H](CC(=O)O)C(=O)N[C@@H]1C(=O)NCC(=O)N[C@@H](CCCN)C(=O)N[C@@H](CC(=O)O)C(=O)N[C@H](C)C(=O)N[C@@H](CC(=O)O)C(=O)NCC(=O)N[C@H](CO)C(=O)N[C@@H]([C@H](C)CC(=O)O)C(=O)N[C@@H](CC(=O)c2ccccc2N)C(=O)O[C@@H]1C [Daptomycin] |  |  |  |  | 0–83.03% |  |  | did not change |  | 16.7% | 100% | ≤ 2 h | MIC (S. aureus E48 [1]): 1 µg/mL (≈ 0.617 µM); MIC ([2]; ATCC 43300): 0.5 µg/mL (≈ 0.309 µM); MIC after 30-day serial passage (S. aureus E48 [5]; [18]): 8 µg/mL (≈ 4.94 µM); decrease of MIC under the addition of 1.25-mM CaCl2 (S. aureus E48 [8]): 8–16 fold; reduction of intracellular S. aureus [9]: 89.74~98.53%; bacteria burdens of liver, lung and spleen compared with the untreated group (S. aureus E48 [10]): no obvious difference; reduction of intracellular bacteria burden in the peritoneal fluid (S. aureus E48 [10]; mean ± SD, n = 6): 0.66 ± 0.83 Log10 CFU/ml; reduction of total bacterial burden in the peritoneal fluid (S. aureus E48 [10]; mean ± SD, n = 6): 1.79 ± 1.05 Log10 CFU/ml
CC(=O)NC[C@H]1CN(c2ccc(N3CCOCC3)c(F)c2)C(=O)O1 [Linezolid] | 1 µg/mL (≈ 2.96 µM) | 2 µg/mL (≈ 5.93 µM) | 2 µg/mL (≈ 5.93 µM) | 1 to 2 µg/mL (≈ 2.96 to 5.93 µM) | 94.08–99.89% | 2 µg/mL (≈ 5.93 µM) | did not influence | did not change | 2 to 4 days | all the mice were dead | did not improve the survival rate |  | increase in the MIC value after 30-day serial passage (S. aureus E48 [5]; [18]): 2 fold; lives extended (S. aureus E48 [7]; 20 mg/kg intravenous two times): 2 to 6 days
plectasin |  |  |  |  |  |  |  |  |  |  |  |  | S. aureus E48 killed (S. aureus E48 [11]; 2 × MIC, within 1 h): approximately 85.85%; time to eliminate bacteria (S. aureus E48 [11]; 2 × MIC): ≤ 2 h; MIC (S. aureus E48 [11]; strain not given, compared with Table 2): 4 µg/mL; hydrophobicity [12]: −0.695; net charge [12]: +1; protein-binding degree [13]: 90%
